Assay results reported in ChEMBL document CHEMBL1201862, “PubChem BioAssay data set” (2004).
Calls of active or inactive are those of the source.

Assays:
[1] = target: Dual specificity tyrosine-phosphorylation-regulated kinase 1A (Homo sapiens, UniProt Q13627); format: functional;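 further: measured against DYRK1A as one member of a broad kinome profiling panel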
[2] = target: Tyrosine-protein kinase Fyn (Homo sapiens, UniProt P06241); format: functional
[3] = target: Serine/threonine-protein kinase Chk2 (Homo sapiens, UniProt O96017); format: functional;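 further: CHEK2 entry within a kinome-wide screening panel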
[4] = target: Megakaryocyte-associated tyrosine-protein kinase (Homo sapiens, UniProt P42679); format: functional;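 further: affinity measured as one member of a kinase panel (Navigating the Kinome) against MATK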
[5] = target: 3-phosphoinositide-dependent protein kinase 1 (Homo sapiens, UniProt O15530); format: functional;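 further: value comes from the Navigating the Kinome panel, PDPK1 member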
[6] = target: Testis-specific serine/threonine-protein kinase 1 (Homo sapiens, UniProt Q9BXA7); format: functional
[7] = target: Serine/threonine-protein kinase PLK3 (Homo sapiens, UniProt Q9H4B4); format: functional
Misshapen-like kinase 1 = Misshapen-like kinase 1 (Homo sapiens, UniProt Q8N4C8); format: functional;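 further: kinome panel screen with MINK as the panel member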
Activated CDC42 kinase 1 = Activated CDC42 kinase 1 (Homo sapiens, UniProt Q07912); assay: Navigating the Kinome. Panel member name: ACK1; format: functional
[8] = target: Interleukin-1 receptor-associated kinase 1 (Homo sapiens, UniProt P51617); format: functional;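 further: IRAK1 tested as one member of a kinome panel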
[9] = target: cGMP-dependent protein kinase 1 (Homo sapiens, UniProt Q13976); format: functional;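 further: value from a kinome panel screen with PRKG1 as the panel member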
[10] = target: STE20-like serine/threonine-protein kinase (Homo sapiens, UniProt Q9H2G2); format: functional
[11] = target: Glycogen synthase kinase-3 alpha (Homo sapiens, UniProt P49840); format: functional;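 further: GSK3A result taken from a broad kinome-wide kinase panel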
[12] = target: Tyrosine-protein kinase JAK3 (Homo sapiens, UniProt P52333); format: functional
[13] = target: Fibroblast growth factor receptor 3 (Homo sapiens, UniProt P22607); format: functional
[14] = target: MAP kinase-interacting serine/threonine-protein kinase 2 (Homo sapiens, UniProt Q9HBH9); format: functional
[15] = target: Serine/threonine-protein kinase D3 (Homo sapiens, UniProt O94806); format: functional;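 further: determined within a kinase panel screen, with PRKCN as the panel member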
[16] = target: Macrophage colony-stimulating factor 1 receptor (Homo sapiens, UniProt P07333); format: functional;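 further: value comes from the Navigating the Kinome screening panel, CSF1R member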
[17] = target: Vascular endothelial growth factor receptor 3 (Homo sapiens, UniProt P35916); format: functional;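 further: value from a kinome-wide profiling panel, with FLT4 as the panel member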
[18] = target: Serine/threonine-protein kinase Chk1 (Homo sapiens, UniProt O14757); format: functional;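 further: measured as one member of a kinome-wide kinase profiling panel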
[19] = target: Calcium/calmodulin-dependent protein kinase type II subunit delta (Homo sapiens, UniProt Q13557); format: functional
[20] = target: Receptor tyrosine-protein kinase erbB-4 (Homo sapiens, UniProt Q15303); format: functional;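 further: ERBB4 member of a kinome-wide kinase profiling panel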
[21] = target: Mitogen-activated protein kinase kinase kinase kinase 2 (Homo sapiens, UniProt Q12851); format: functional;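 further: measured as one member of a kinome-wide kinase panel, with MAP4K2 as the panel entry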
[22] = target: Lymphokine-activated killer T-cell-originated protein kinase (Homo sapiens, UniProt Q96KB5); format: functional;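 further: value comes from a kinase panel screen in which TOPK was one of the panel members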
[23] = target: ALK tyrosine kinase receptor (Homo sapiens, UniProt Q9UM73); format: functional;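 further: ALK tested as one member of a kinase panel screen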
[24] = target: Receptor-type tyrosine-protein kinase FLT3 (Homo sapiens, UniProt P36888); format: functional;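 further: FLT3 was tested as one member of a kinome-wide kinase panel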
[25] = target: Phosphorylase b kinase gamma catalytic chain, liver/testis isoform (Homo sapiens, UniProt P15735); format: functional;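 further: PHKG2 measured as one member of a kinome-wide kinase panel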
[26] = target: Dual specificity protein kinase CLK4 (Homo sapiens, UniProt Q9HAZ1); format: functional
[27] = target: Vascular endothelial growth factor receptor 1 (Homo sapiens, UniProt P17948); format: functional;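 further: measured within a kinome-wide profiling panel, FLT1 as the panel member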
[28] = target: Leukocyte tyrosine kinase receptor (Homo sapiens, UniProt P29376); assay: Navigating the Kinome. Panel member name: LTK; format: functional
[29] = target: MAP kinase-activated protein kinase 2 (Homo sapiens, UniProt P49137); format: functional;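 further: measured as one member of a kinome-wide kinase panel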
[30] = target: Dual specificity tyrosine-phosphorylation-regulated kinase 3 (Homo sapiens, UniProt O43781); format: functional;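 further: measured as one member of a broad kinase panel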
[31] = target: Dual specificity mitogen-activated protein kinase kinase 1 (Homo sapiens, UniProt Q02750); assay: Navigating the Kinome. Panel member name: MAP2K1; format: functional
[32] = target: Mitogen-activated protein kinase 14 (Homo sapiens, UniProt Q16539); format: functional;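 further: part of a kinome-wide panel, MAPK14 entry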
[33] = target: Cyclin-dependent kinase 9 (Homo sapiens, UniProt P50750); format: functional;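 further: value from the CDK9 entry of a kinome-spanning kinase panel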
[34] = target: Tyrosine-protein kinase Lyn (Homo sapiens, UniProt P07948); format: functional;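 further: lyn as one member of a kinase panel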
[35] = target: Serine/threonine-protein kinase PLK1 (Homo sapiens, UniProt P53350); format: functional;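 further: PLK1 measured as one member of a kinome-wide profiling panel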
[36] = target: T1, Zinc finger protein mex-5 (Caenorhabditis elegans, UniProt Q9XUB2); assay: MEX-5/TCR-2 RNA interaction inhibitors, dose response, biochemical, C. elegans, fluorescence polarization (AID 1960)
T1 sequence (Q9XUB2 whole entry): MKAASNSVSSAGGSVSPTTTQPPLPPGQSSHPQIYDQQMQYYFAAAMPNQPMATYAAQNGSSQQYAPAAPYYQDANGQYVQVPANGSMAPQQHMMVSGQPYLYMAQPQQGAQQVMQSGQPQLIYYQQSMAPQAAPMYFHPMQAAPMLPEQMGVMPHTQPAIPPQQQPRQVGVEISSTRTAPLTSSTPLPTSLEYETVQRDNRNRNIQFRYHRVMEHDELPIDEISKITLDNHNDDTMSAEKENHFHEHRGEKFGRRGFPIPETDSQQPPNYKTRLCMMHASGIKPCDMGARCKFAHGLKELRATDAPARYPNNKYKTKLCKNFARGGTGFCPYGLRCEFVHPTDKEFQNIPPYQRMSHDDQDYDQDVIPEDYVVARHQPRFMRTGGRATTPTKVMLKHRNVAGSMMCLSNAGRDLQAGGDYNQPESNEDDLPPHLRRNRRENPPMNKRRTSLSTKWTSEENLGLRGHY

Genome polyprotein = Genome polyprotein (dengue virus type 2, UniProt P29990); assay: Dengue-2 NS5 methyltransferase inhibitors, primary screen, biochemical, confirmation dose response (AID 588689); format: functional

Chain of ALK tyrosine kinase receptor (Q9UM73 whole entry): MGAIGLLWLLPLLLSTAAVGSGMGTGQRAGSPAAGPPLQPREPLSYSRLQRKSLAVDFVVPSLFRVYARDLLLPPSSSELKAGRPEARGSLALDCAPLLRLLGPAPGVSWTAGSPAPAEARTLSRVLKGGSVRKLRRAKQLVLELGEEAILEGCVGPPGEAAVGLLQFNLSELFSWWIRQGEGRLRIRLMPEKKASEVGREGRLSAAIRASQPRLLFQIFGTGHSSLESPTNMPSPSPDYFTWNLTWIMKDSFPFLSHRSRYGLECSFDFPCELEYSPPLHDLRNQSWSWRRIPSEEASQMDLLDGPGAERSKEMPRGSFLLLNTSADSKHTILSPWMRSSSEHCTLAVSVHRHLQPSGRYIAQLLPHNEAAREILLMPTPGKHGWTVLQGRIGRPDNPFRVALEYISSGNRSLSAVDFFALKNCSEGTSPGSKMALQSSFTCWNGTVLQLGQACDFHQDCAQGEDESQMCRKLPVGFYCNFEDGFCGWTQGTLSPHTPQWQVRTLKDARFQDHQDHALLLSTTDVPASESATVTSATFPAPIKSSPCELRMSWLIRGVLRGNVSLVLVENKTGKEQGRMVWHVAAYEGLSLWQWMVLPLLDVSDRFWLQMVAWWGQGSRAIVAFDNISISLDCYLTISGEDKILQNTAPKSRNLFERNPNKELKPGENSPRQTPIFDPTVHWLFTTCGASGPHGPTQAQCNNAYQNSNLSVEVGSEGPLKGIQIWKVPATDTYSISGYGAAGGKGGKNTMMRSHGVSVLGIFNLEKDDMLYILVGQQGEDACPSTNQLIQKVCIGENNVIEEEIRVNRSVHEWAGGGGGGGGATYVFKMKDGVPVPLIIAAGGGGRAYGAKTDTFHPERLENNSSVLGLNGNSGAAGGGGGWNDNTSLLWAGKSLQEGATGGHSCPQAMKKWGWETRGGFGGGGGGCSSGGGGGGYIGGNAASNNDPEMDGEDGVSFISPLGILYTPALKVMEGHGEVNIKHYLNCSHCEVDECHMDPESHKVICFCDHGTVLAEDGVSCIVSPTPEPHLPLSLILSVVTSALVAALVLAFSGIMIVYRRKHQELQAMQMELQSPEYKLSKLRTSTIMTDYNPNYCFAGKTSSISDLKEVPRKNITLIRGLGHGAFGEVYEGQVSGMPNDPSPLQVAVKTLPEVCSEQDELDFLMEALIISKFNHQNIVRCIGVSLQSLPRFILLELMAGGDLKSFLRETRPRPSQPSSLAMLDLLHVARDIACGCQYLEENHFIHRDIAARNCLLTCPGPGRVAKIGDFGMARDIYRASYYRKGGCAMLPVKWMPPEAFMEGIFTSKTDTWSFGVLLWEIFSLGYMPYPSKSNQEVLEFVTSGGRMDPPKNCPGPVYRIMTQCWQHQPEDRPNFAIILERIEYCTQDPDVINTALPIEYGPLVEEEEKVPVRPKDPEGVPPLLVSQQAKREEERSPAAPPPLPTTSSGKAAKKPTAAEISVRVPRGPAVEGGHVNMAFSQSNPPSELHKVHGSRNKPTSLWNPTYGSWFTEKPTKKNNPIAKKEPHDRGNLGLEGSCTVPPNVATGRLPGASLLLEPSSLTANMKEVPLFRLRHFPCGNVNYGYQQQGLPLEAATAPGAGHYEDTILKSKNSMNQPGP
Chain of Glycogen synthase kinase-3 alpha (P49840 whole entry): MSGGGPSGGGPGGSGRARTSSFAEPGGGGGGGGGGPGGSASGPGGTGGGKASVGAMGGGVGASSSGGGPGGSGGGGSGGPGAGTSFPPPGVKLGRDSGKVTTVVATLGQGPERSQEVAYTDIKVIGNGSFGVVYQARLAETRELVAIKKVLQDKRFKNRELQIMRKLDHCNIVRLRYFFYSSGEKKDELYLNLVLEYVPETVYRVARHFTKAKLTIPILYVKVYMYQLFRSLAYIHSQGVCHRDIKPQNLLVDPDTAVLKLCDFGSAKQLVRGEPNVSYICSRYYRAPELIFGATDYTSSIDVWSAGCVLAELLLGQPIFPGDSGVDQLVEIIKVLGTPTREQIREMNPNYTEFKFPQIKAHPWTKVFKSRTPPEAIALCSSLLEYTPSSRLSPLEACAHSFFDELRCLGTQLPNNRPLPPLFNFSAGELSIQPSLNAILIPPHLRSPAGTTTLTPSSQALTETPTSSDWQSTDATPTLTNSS
Chain of Megakaryocyte-associated tyrosine-protein kinase (P42679 whole entry): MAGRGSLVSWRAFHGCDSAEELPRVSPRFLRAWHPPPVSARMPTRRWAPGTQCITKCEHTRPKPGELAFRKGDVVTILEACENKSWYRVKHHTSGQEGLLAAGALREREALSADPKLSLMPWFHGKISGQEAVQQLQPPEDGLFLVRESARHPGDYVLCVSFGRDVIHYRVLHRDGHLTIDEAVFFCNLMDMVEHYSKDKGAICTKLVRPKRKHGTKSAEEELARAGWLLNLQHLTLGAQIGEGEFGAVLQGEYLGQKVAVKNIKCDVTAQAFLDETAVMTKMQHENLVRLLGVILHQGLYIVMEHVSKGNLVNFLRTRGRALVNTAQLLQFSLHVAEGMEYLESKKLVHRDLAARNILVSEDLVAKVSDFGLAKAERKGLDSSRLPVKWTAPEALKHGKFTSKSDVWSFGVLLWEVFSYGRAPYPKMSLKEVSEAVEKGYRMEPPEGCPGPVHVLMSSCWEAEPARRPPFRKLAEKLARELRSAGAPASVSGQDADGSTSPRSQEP
Chain of Fibroblast growth factor receptor 3 (P22607 whole entry): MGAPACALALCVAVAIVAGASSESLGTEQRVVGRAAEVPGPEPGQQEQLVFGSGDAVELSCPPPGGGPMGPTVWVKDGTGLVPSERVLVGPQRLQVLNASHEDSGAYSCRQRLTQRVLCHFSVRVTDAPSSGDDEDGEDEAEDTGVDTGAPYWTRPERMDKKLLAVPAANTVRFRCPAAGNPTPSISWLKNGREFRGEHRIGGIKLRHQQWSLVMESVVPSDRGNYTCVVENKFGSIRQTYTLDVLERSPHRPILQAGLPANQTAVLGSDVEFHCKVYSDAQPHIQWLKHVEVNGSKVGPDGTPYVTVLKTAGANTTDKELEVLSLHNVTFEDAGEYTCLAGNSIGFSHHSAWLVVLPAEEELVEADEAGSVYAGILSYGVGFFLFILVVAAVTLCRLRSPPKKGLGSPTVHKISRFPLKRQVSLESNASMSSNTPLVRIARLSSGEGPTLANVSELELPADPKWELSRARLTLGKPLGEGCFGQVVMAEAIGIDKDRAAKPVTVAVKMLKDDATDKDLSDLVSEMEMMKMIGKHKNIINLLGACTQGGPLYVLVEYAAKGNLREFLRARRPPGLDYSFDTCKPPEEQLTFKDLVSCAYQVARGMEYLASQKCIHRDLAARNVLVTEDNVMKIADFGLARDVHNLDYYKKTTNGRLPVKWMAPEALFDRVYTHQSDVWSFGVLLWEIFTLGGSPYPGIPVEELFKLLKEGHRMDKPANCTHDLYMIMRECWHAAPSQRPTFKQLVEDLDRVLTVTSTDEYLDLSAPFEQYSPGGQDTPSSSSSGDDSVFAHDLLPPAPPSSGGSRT
Chain of Mitogen-activated protein kinase 14 (Q16539 whole entry): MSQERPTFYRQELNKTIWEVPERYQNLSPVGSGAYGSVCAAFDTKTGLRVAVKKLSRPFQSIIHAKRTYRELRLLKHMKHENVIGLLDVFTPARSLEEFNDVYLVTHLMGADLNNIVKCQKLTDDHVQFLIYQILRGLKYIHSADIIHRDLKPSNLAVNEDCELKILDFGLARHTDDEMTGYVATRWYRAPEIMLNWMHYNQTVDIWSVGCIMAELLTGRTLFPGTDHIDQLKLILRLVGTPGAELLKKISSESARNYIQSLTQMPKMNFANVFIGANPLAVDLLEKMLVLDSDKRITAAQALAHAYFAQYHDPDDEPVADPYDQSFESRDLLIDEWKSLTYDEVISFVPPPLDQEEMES
Chain of MAP kinase-interacting serine/threonine-protein kinase 2 (Q9HBH9 whole entry): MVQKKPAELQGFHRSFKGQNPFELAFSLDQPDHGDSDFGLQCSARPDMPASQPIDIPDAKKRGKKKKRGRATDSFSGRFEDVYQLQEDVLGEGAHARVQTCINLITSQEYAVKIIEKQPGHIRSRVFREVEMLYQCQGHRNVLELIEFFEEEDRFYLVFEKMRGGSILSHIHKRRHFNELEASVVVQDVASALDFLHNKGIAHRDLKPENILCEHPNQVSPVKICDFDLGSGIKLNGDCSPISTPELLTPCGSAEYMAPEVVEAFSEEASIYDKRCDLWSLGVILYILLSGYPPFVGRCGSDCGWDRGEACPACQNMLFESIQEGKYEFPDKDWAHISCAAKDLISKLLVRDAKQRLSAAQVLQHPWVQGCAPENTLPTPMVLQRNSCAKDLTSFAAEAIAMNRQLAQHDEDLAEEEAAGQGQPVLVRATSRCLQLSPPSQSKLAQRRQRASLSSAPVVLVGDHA
Chain of Calcium/calmodulin-dependent protein kinase type II subunit delta (Q13557 whole entry): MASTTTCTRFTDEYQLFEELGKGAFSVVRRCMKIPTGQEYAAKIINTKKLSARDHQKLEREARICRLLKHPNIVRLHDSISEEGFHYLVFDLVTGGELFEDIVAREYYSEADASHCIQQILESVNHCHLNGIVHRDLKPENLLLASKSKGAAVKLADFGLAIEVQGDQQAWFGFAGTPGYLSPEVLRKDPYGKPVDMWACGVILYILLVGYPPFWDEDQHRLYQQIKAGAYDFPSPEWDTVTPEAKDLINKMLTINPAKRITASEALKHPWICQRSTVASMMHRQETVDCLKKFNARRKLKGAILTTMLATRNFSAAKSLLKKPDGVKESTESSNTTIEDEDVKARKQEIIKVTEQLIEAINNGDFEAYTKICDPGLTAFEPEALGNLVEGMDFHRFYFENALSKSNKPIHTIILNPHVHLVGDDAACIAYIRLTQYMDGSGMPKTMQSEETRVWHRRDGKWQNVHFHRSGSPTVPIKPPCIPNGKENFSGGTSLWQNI

## Clc1cc(NC2CCCCC2)nc(-c2c[nH]c3ncccc23)n1
[1]
  Ki: 631 nM (active)
[2]
  Ki: > 794 nM (inactive)
[3]
  Ki: 316 nM (active)
[4]
  Ki: > 2000 nM (inactive)
[5]
  Ki: 79.4 nM (active)
[6]
  Ki: 251 nM (active)
[7]
  Ki: 3980 nM (active)
Misshapen-like kinase 1
  Ki: 6.31 nM (active)
Activated CDC42 kinase 1
  Ki: > 3980 nM (inactive)
[8]
  Ki: 2510 nM (active)
[9]
  Ki: 501 nM (active)
[10]
  Ki: 501 nM (active)
[11]
  Ki: 1260 nM (active)
[12]
  Ki: > 2000 nM (inactive)
[13]
  Ki: > 2000 nM (inactive)
[14]
  Ki: 1260 nM (active)
[15]
  Ki: > 2510 nM (inactive)
[16]
  Ki: > 1580 nM (inactive)
[17]
  Ki: 1000 nM (active)
[18]
  Ki: 1000 nM (active)
[19]
  Ki: > 3160 nM (inactive)
[20]
  Ki: > 3980 nM (inactive)
[21]
  Ki: 398 nM (active)
[22]
  Ki: 6310 nM (active)
[23]
  Ki: > 3980 nM (inactive)
[24]
  Ki: > 2000 nM (inactive)
[25]
  Ki: > 5010 nM (inactive)
[26]
  Ki: 158 nM (active)
[27]
  Ki: > 398 nM (inactive)
[28]
  Ki: > 2510 nM (inactive)
[29]
  Ki: 2510 nM (active)
[30]
  Ki: 100 nM (active)
[31]
  Ki: 251 nM (active)
[32]
  Ki: > 3980 nM (inactive)
[33]
  Ki: > 3980 nM (inactive)
[34]
  Ki: 631 nM (active)
[35]
  Ki: 501 nM (active)

## Cc1ccc(/C=C2/C(=O)c3ccc(C(=O)O)cc3C2=O)o1
[36]
  EC50: 63600 nM (active)
Genome polyprotein
  IC50: 40100 nM (active)
